Data as given in patent publication US20130273113A1 (priority 2012, published 2013).

Assays:
nasal epithelial cells = assay: Detection of apoptosis (caspase-3 staining) and necrosis (morphology) in nasal epithelium; settings: 2 hours following nasal treatment, 15 μl
TC-1 epithelial cells = assay type: cell-based, murine
[1] = test system: Bone marrow derived dendritic cells (BMDC); assay type: cell-based, C57BL/6 mice
nasal septal tissue = test system: nasal septal tissue; design: species or system C57BL/6 mice; settings: mouse, in vivo
[2] = test system: primary nasal septal epithelial cells; assay type: cell-based, C57BL/6N mice
[3] = test system: B6.Cg-Tg(HLA-A/H2-D)2Enge/J mice; settings: mouse, in vivo

Molecule: CCCCCCCCCCCCCCCC[n+]1ccccc1 [CPC, cetylpyridinium chloride]
- inflammation in nasal epithelium (nasal epithelial cells): neutrophilic infiltration

Molecule: cholera toxin [CT]
- IL-6, TGF-β and TSLP in TC-1 supernatant (TC-1 epithelial cells): only IL-6 was induced
- cytokines and chemokines in BMDC supernatant [1]: stimulated IL-1α, IL-1β and MIP-1α in BMDC in addition to IL-10, G-CSF, IL-10, IL-4, IL-6, IL-9, IL-12, IL-15, IL-17, TNF-α, and KC
- cytokine response profile in nasal septal tissue (nasal septal tissue): increases in only IL-6 and IL-12 common to both NE and CT
- surface expression of MHC class II [2]: no significant difference
- end titer of anti-HBsAg IgG [3]: 6.4×10^5
- secreted anti-HBsAg IgA [3]: equivalent local mucosal immune responses
